Patent publication US20250352609A1, “Methods For Treating Alzheimer's Disease or Dementia Using A Calcilytic And A Calcimimetic” (The United States Government As Represented By The …, priority 2024, published 2025)

What was measured:
[1] = tested on: 18 MOA male C57/B6 mice; assay: Y-maze test, aging-induced cognitive declines, Etelcalcetide; assay type: in vivo; details: 18 MOA vs 5 MOA male C57/B6 mice, 8 weeks daily (5 days/week) injections, 500 μg/kg
Method: Spont Alt indices of Y-maze test in 5 and 18 MOA male C57/B6 mice after 8 weeks of daily (5 days/week) injections of vehicle, 500 μg/kg Etelcalcetide (Etel) and/or 12 μmole/kg NPS-2143 (2143). Mean±SE, p values by one-way ANOVA, n=6-12 mice/group.
(§1) Based on the outcomes of the above genetically manipulated mice, it was tested whether pharmacological manipulations of serum PTH levels with blood-brain barrier (BBB)-impermeable calcimimetics (e.g., etelcalcetide) that activate CaSR homodimers in PTCs to suppress PTH secretion can prevent the cognitive declines in the aging and APP^NL-G-F/NL-G-F mice.

[2] = tested on: APP^NL-G-F mice; assay: Y-maze test, cognitive declines in EOAD mice, Etelcalcetide; assay type: in vivo; details: APP^NL-G-F mice at 10 MOA, daily (5 days/week) injections 500 μg/kg beginning at 6 MOA
Method: Spont Alt indices of Y-maze test in 10 MOA mice carrying humanized Ab sequence without (bAb-KI) or with (APP^NLGF) 4 mutations identified from EOAD patients after daily (5 days/week) injections of vehicle, 500 μg/kg Etelcalcetide (Etel) and/or 12 μmole/kg NPS-2143 (2143) beginning at 6 MOA. Mean±SE, p values by one-way ANOVA, n=19-37 mixed male and female mice/group.
as §1

[3] = tested on: serum PTH (sPTH); assay: Serum PTH in aging-associated HPT mice; assay type: in vivo; details: aged male C57/B6 mice; aducanumab 40 mg/kg/week by twice weekly injections for 5 weeks; Etelcalcetide 0.3 mg/kg once daily
[4] = tested on: Tau phosphorylation; assay: Aβ1-42-stimulated PTH secretion in vitro with Tau phosphorylation inhibitor; assay type: cell-based; details: inhibition of Tau phosphorylation
Description: In support of this finding, inhibition of Tau phosphorylation by a staurosporine analogue (K252a) blocked the ability of Aβ1-42 to stimulate PTH secretion in vitro, and the increased tonic PTH hypersecretion seen in mice with PTC-targeted Vdr gene KO (^PTCVdr^Dflox/Dflox), mimicking vitamin D deficiency, was reversed by a concurrent ablation of App (^PTCVdr^Dflox/Dflox; App^Dflox/Dflox) or the TAU-encoding Mapt (^PTCVdr^Dflox/Dflox; Mapt−/−) gene.

[5] = tested on: murine PTGs; assay: Ex vivo tonic PTH secretion from cultured murine PTGs; assay type: cell-based
Method: Ex vivo assessments of the impact of different concentrations (0.3 to 1000 nM) Aβ1-42 on PTH secretion from intact PTGs cultured from the 3-month-old mice with homozygous parathyroid-specific App gene KO (square); homozygous parathyroid-specific App and Casr double gene KO (up triangle); homozygous parathyroid-specific App and Gabbr1 double gene KO (down triangle); or homozygous parathyroid-specific App, Casr, and Gabbr1 triple gene KO (diamond). Mean±s.e.m. of n mice as indicated in the plots.
(§2) This stimulatory effect was absent in murine PTGs lacking either CaSR or GABAB1R.

[6] = tested on: human PTGs; assay: Tonic PTH secretion from cultured human PTGs; assay type: cell-based; details: exogenous Aβ1-42 0.3 to 1000 nM, concentration-dependent, vs control
Description: as §2

[7] = tested on: iPSC-derived neurons co-expressing CASR and GABAB1R; assay: cAMP production in iPSC-derived neurons challenged by Aβ42; assay type: cell-based; details: iPSC-derived neurons perfused with Aβ42
Description: Averaged time courses of CAMP in normal iPSC-derived neurons natively expressing CaSR and GABAB1R and challenged by Ab1-42. Cells were continuously perfused with buffer without or with Aβ42 (horizontal bar). Data represent the mean value s.e.m. of n=20 cells and N=3 experiments.
Given that HPT can cause chronic inflammation (Cheng, S. P., et al. Mediators Inflamm 2014, 709024 (2014); çrakolu, M. F. et al. ENT Updates 11, 115-119 (2021); and Almqvist, E. G., et al. Scandinavian journal of clinical and laboratory investigation 71, 139-144 (2011)) and that CaSR expression increases in inflammatory responses in pathological conditions (Jager, E. et al. Nat Commun 11, 4243 (2020); and Iamartino, L. & Brandi, M. L. Front Physiol 13, 1059369 (2022)), including in AD, through interleukin (IL)-1β (IL1β) and IL-6-induced NFkb cis-acting response of CASR gene (Canaff, L. & Hendy, G. N. J Biol Chem 280, 14177-14188 (2005); and Hendy, G. N. & Canaff, Semin Cell Dev Biol 49, 37-43 (2016)), HPT-induced inflammation could be a leading cause for CaSR upregulation as well as for Aβ buildup in AD (Kinney, J. W. et al. Alzheimers Dement (N Y) 4, 575-590 (2018); Ilievski, V. et al. PloS one 13, e0204941 (2018); and Yamamoto, M. et al. Am J Pathol 170, 680-692 (2007)).

CC(=O)N[C@H](CSSC[C@H](N)C(=O)O)C(=O)N[C@H](C)C(=O)N[C@H](CCCNC(=N)N)C(=O)N[C@H](CCCNC(=N)N)C(=O)N[C@H](CCCNC(=N)N)C(=O)N[C@H](C)C(=O)N[C@H](CCCNC(=N)N)C(N)=O [Etelcalcetide]
cognitive declines, Y-maze Spont Alt index [1]: partially prevented | early cognitive declines, Y-maze Spont Alt index [2]: partially prevented | reduction of sPTH [3]: > 80%

COC(=O)[C@@]1(O)C[C@H]2O[C@]1(C)n1c3ccccc3c3c4c(c5c6ccccc6n2c5c31)C(=O)NC4 [K252a]
ability of Aβ1-42 to stimulate PTH secretion [4]: blocked

Aβ1-42: b-amyloid (Ab1-42), derivative of amyloid precursor protein, added exogenously to PTG cultures
stimulation of tonic PTH secretion ([5]; exogenous Aβ1-42 0.3 to 1000 nM, concentration-dependent, vs control): up to 1.6 fold | stimulatory effect on PTH secretion in PTGs lacking either CaSR or GABAB1R ([5]; murine PTGs lacking either CaSR or GABAB1R): absent | Ca^2+-set point ([5]; murine and human PTGs, Aβ1-42 0.3 to 1000 nM): without shifting | stimulation of tonic PTH secretion [6]: ≤ 1.9 fold | cAMP production [7]: stimulating cAMP production
